The values that follow come from patent EP3102180B1, “A TOPICAL COMPOSITION” (Unilever N.V., priority 2014, dated 2015).

Holding throughout (type): cell-based
Experiment [1] has as its system IL-17. The experiment is described as follows: Co-treatment with different actives, cytokine ELISA in PBMCs. Particulars: co-treatment with 0.001% active, 25 ng PMA/ 1 µg lonomycin; control 2244. For orientation: In an ELISA, binding on a coated surface is turned into a signal by an enzyme label.
For experiment [2], the system named is IL-17. The experiment is described as follows: IL-17 ELISA in PBMCs pretreated with active, induced with PMA/ionomycin. Particulars: PBMCs pretreated with 0.001% active for 24 hours, induction 24 hours with 25 ng PMA/ 1 µg lonomycin; control 732; lower = more anti-inflammatory. As for the experimental part:
(§1) The procedure used to measure the anti-inflammatory potential of the various samples was as follows: Blood was diluted with equal volume of HBSS or PBS(1:1). The PBMCs were isolated into fresh tube. These PBMC's were then plated in 96 well plate (10^6 cell/well). They were then pretreated with the active (for 24 hours). Induction was then carried out with antigen/mitogen for 24 hours. The cell-supernatant was then taken and frozen. The cytokine levels in these supernatants were detected by ELISA.

Experiment [3] concerns TNF-alpha. The experiment is described as follows: TNF-alpha ELISA in PBMCs pretreated with active, induced with PMA/ionomycin. Particulars: 0.001% active, 25 ng PMA/ 1 µg lonomycin, control 5384, lower = more anti-inflammatory. Here is the method: as §1
The experiments were conducted using a similar procedure as earlier except that TNF-alpha ELISA was measured as a marker. Table -2

Experiment [4] relates to TNF-alpha. The experiment is described as follows: TNF-alpha ELISA in primary keratinocytes, LPS-induced inflammation. The following applies: primary keratinocytes pretreated 24 hours with 0.001% active, 25 µg LPS; control 283. As for the experimental part:
(§2) The procedure used to measure the anti-inflammatory potential of the various samples was as follows: The primary keratinocytes were seeded in a 24 well plate (80000 cell/well). On attaining full confluency, the cells were pretreated with the active for 24 hours. Inflammation was induced either through using LPS or through use of live and heat treated P. acnes for 24 hours. The cell-supernatant was then taken and frozen. The cytokine levels in these supernatants were detected by ELISA.

Experiment [5] deals with IL-8. The experiment is described as follows: IL-8 ELISA in keratinocytes induced with LPS, heat killed or live P. acnes. As for the experimental part: as §2
The experiments as shown in Table - 6 were studies using keratinocyte cell lines and the IL-8 concentration was measured. Table - 6
Examples K, 9 and 10: Experiments similar to J, 7 and 8 except that live p.acne was used

In experiment [6] the test system is IL-8. The experiment is described as follows: IL-8 ELISA in PBMCs exposed to P.acne (with or without antimicrobial treatment of the bacteria). Here is the method: Actives/ Compositions as shown in Table-8 were measured for effect on inflammatory marker IL-8 using the following procedure: PBMCs were isolated as discussed before for Example-1. They were then plated in a 96-well plate. In some wells, cells were pre-treated with 0.001% Andrographolide for 24 hours and some wells were not treated with anything. P.acne culture was grown on CY agar medium in aneorobic chamber and then culture was set to the .005 O.D. Bacterial culture was treated with antimicrobial active combination of thymol (0.05%) and terpineol (0.05%) for 30 seconds. After the contact time is over, sample was neutralized in D/E neutralizer. The bacterial pellet was collected by centrifugation. The pellet was re-suspended in cell culture medium and bacterial culture was added to the cells (PBMC's) treated with andrographolide and also bacterial culture was added to the wells where there was no treatment with andrographolide. Live P.acne (not treated with the antimicrobial actives) was added to the wells where there was no treatment with andrographolide and also added to the wells treated with andrographolide. The treated cells were incubated in 37° C incubator for 24 hours. After 24 hours the supernatant was removed and ELISA was done for IL-8 marker.
The same procedure was followed as explained in the previous section for this experiment. The antimicrobials which were used for this experiment were thymol, terpineol, Triclosan (TCN) and Trichlorocarban (TCC). The used concentrations of these antimicrobials and the concentration of the IL-8 marker after the treatment are summarized in the following Table 9. Table - 9

The subject of experiment [7] is TNF-alpha. The experiment is described as follows: TNF-alpha ELISA in PBMCs exposed to P.acne (with or without antimicrobial treatment of the bacteria). The following applies: Table 10: PBMCs; Andrographolide pre-treatment (0.001% per procedure); P.acne treated with 0.05% Thymol, 0.05% Terpineol or 0.2% Silver Oxide; P.acne alone 635.6.
Another experiment deals with bacterial cells. The experiment is described as follows: Antibacterial contact-time kill test (pour plate count after neutralisation). Particulars: 0.2% TCC or 0.2% thymol + 0.5% terpineol. As for the experimental part:
Efficacy of two compositions as shown in Table - 4 were measured as follows: The O.D of the bacterial cells were adjusted such that it corresponds to 1X10^8 cells of bacteria. 1ml of the bacterial culture was taken and added to 9 ml of the test solution (containing the antimicrobial active). The mixture was kept for the desired amount of time after which it was neutralized by adding 1 ml of mix to the 9 ml of D/E neutralizer. It was then serially diluted till 10^5. The number of bacteria was then enumerated by using the pour plate method.

Setting [8] is: Table 9: PBMCs, Andrographolide pre-treatment (0.001% per procedure), P.acne treated with 0.05% Thymol, 0.05% Terpineol, 0.2% TCC, 0.2% TCN or 0.2% Silver Oxide, P.acne alone 641.5.

`CC1=C(/C=C/C(C)=C/C=C/C(C)=C/CO)C(C)(C)CCC1` [Retinol]: in the experiment on IL-17 [1], the IL-17 concentration came out at 2006 pg/mL.
Consider `CCC(C)(C)C(=O)O[C@H]1C[C@@H](C)C=C2C=C[C@H](C)[C@H](CC[C@@H]3C[C@@H](O)CC(=O)O3)[C@H]21` [Simvastatin, reference compound], for which the IL-17 concentration in the experiment with IL-17 [2] came to 493 pg/mL.
As for `CC1=C(/C=C/C(C)=C/C=C/C(C)=C/C(=O)O)C(C)(C)CCC1` [Retinoic acid], the IL-17 concentration in the experiment with IL-17 [1] was found to be 2762 pg/mL.
`C=C1CC[C@@H]2[C@](C)(CO)[C@H](O)CC[C@@]2(C)[C@@H]1C/C=C1/C(=O)OC[C@H]1O` [Andrographolide, andrographolide]: the results for the IL-17 concentration in the experiment with IL-17 [2] and in the experiment on IL-17 [1] were 143 pg/mL and 1187 pg/mL, respectively. For the same compound, the figures for the TNF-alpha concentration in the experiment with TNF-alpha [3], in the experiment on TNF-alpha [4] and with TNF-alpha [7] were 58 pg/mL, 156 pg/mL and 231.15 pg/mL, respectively. The IL-8 concentration is 229 pg/mL in the experiment with IL-8 [5] (0.01% active, inducer 50 µg LPS, control 649); 1088 pg/mL in the experiment on IL-8 [5] (0.01% active, inducer heat killed P. acnes, control 2238); 337 pg/mL with IL-8 [5] (0.01% active, inducer live P. acnes, control 558); 78 pg/mL in the experiment on IL-8 [5] (0.1% active, inducer 50 µg LPS, control 649); 230 pg/mL in the experiment on IL-8 [5] (0.1% active, inducer heat killed P. acnes, control 2238); 205 pg/mL in the experiment on IL-8 [5] (0.1% active, inducer live P. acnes, control 558). Further, the IL-8 concentration was determined as 400 pg/mL with IL-8 [6] (Table 8: PBMCs pre-treated with 0.001% Andrographolide for 24 hours and/or P.acne treated with thymol (0.05%) and terpineol (0.05%) for 30 seconds, P. acnes alone 957); 276.48 pg/mL in the experiment with IL-8 [6] (setting [8]).
Take `O=C(Nc1ccc(Cl)cc1)Nc1ccc(Cl)c(Cl)c1` [TCC, Trichlorocarbanilide]: the “Log CFU/ml” value was determined as 7.1 Log CFU/ml with bacterial cells (contact time 15 seconds, 1X10^8 cells of bacteria); 7.1 Log CFU/ml in the experiment on bacterial cells (contact time 30 seconds); 7.1 Log CFU/ml with bacterial cells (contact time 1 minute); 7.1 Log CFU/ml in the experiment on bacterial cells (contact time 5 minutes). Also, the IL-8 concentration in the experiment with IL-8 [6] (setting [8]) was 626.48 pg/mL.
Regarding `Oc1cc(Cl)ccc1Oc1ccc(Cl)cc1Cl` [TCN, Triclosan, reference compound], the IL-8 concentration in the experiment with IL-8 [6] (setting [8]) is 613.15 pg/mL.
Consider `[Ag+].[Ag+].[O-2]` [Silver Oxide, silver oxide, reference compound], for which, in the experiment on IL-8 [6] (setting [8]), the IL-8 concentration stood at 599.8 pg/mL. For the same compound, the TNF-alpha concentration in the experiment with TNF-alpha [7] came out at 494.3 pg/mL.
The corresponding values for `Cc1ccc(C(C)C)c(O)c1` [Thymol, thymol] are 546.38 pg/mL and 546.94 pg/mL.
